# Activity calls are given as the source filed them. The calls are words filed in the database; no cut-off is given here.
# Experiments:
# [1] = molecular target: T1, DNA topoisomerase 1 (Homo sapiens) (UniProt P11387); test: Inhibition of topoisomerase 1 (unknown origin) at 10 uM using supercoiled pBR322 DNA substrate by ethidium bromide staining based electrophoresis method
# T1 sequence (whole entry): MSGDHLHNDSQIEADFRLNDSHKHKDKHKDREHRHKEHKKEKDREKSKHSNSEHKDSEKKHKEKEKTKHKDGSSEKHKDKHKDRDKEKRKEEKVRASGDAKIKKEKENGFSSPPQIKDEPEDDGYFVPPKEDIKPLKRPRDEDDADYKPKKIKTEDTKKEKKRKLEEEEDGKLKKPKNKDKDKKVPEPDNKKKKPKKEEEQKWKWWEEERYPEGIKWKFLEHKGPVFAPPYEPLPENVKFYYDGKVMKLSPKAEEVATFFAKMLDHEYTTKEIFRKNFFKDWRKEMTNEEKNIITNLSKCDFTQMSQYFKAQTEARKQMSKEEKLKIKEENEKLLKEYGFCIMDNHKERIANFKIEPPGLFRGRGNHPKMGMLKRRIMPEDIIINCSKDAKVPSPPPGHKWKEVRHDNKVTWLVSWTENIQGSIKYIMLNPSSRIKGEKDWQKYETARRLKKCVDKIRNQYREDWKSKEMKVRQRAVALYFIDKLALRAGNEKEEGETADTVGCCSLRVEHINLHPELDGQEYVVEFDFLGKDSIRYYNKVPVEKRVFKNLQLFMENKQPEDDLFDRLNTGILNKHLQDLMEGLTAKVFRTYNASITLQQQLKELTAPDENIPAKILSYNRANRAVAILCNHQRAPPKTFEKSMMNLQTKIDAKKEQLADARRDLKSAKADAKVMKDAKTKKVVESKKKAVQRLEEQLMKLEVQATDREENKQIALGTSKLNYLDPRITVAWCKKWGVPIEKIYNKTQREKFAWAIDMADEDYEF
# [2] = Cytotoxicity against human HCT116 cells after 72 hrs by sulforhodamine B assay; assay type: functional, cell-based, HCT-116
# [3] = test system: HT-29; test: Cytotoxicity against human HT-29 cells after 72 hrs by sulforhodamine B assay; assay type: functional, cell-based
# [4] = molecular target: T1, DNA topoisomerase 1 (Homo sapiens); test: Inhibition of topoisomerase 1 (unknown origin) at 100 uM using supercoiled pBR322 DNA substrate by ethidium bromide staining based electrophoresis method
# [5] = Inhibition of survivin protein expression in human HCT116 cells at 5 nM after 48 hrs by Western blot method; assay type: functional, cell-based; details: HCT-116
# [6] = Inhibition of survivin protein expression in human HCT116 cells at 1 nM after 48 hrs by Western blot method; assay type: functional, cell-based; details: HCT-116
# [7] = Stability in human plasma assessed as lactone moieties level at 1 uM incubated at 37 degC after 3 hrs by HPLC method; assay type: ADME, cell-free; details: read-out: Stability
# [8] = test system: Mus musculus; test: Toxicity in human HT-29 cells xenografted mouse assessed as body weight level at 15 mg/kg, iv dosed three times per week to the end of treatment measured on day 14 (reference value: 22.7 +/- 1.5 g); assay type: organism-based; set-up: dose 15 mg/kg, route intravenous; details: in vivo
# [9] = test system: Mus musculus; test: Toxicity in human HT-29 cells xenografted mouse assessed as body weight level at 15 mg/kg, iv dosed three times per week to the end of treatment measured on day 7 (reference value: 21.7 +/- 1 g); assay type: organism-based; set-up: dose 15 mg/kg, route intravenous; details: in vivo
# [10] = test system: Mus musculus; test: Toxicity in human HT-29 cells xenografted mouse assessed as body weight level at 15 mg/kg, iv dosed three times per week to the end of treatment measured on day 3 (reference value: 20.7 +/- 1.2 g); assay type: organism-based; set-up: dose 15 mg/kg, route intravenous; details: in vivo
# [11] = test system: Mus musculus; test: Toxicity in human HT-29 cells xenografted mouse assessed as body weight level at 15 mg/kg, iv dosed three times per week to the end of treatment measured on day 17 (reference value: 22 +/- 1.7 g); assay type: organism-based; set-up: dose 15 mg/kg, route intravenous; details: in vivo
# [12] = test system: Mus musculus; test: Toxicity in human HT-29 cells xenografted mouse assessed as lethal toxicity at 15 mg/kg, iv dosed three times per week to the end of treatment; assay type: organism-based; set-up: dose 15 mg/kg, route intravenous; details: in vivo
# [13] = test system: HT-29; test: Antitumor activity against human HT-29 cells xenografted in mouse assessed as relative tumor increment rate at 15 mg/kg, iv dosed three times per week to the end of treatment relative to untreated control; assay type: functional
# [14] = test system: Mus musculus; test: Toxicity in human HT-29 cells xenografted mouse assessed as body weight level at 15 mg/kg, iv dosed three times per week to the end of treatment measured on day 10 (reference value: 22.4 +/- 1.3 g); assay type: organism-based; set-up: dose 15 mg/kg, route intravenous; details: in vivo
# [15] = test system: Mus musculus; test: Toxicity in human HT-29 cells xenografted mouse assessed as body weight level at 15 mg/kg, iv dosed three times per week to the end of treatment measured on day 21 (reference value: 21.2 +/- 1.6 g); assay type: organism-based; set-up: dose 15 mg/kg, route intravenous; details: in vivo
# [16] = test system: HCT-116; test: Potency index, ratio of IC50 for SN38 to IC50 for compound against human HCT116 cells after 72 hrs by sulforhodamine B assay; assay type: functional
Compound,inhibition [1],"IC50 ([2]; Homo sapiens, HCT-116, 72 h)","IC50 ([3]; Homo sapiens, HT-29, 72 h)",inhibition [4],other results
CC[C@]1(O)c2cc3n(c(=O)c2COC(=O)[C@H]1OC(C)=O)Cc1c-3nc2ccccc2c1-c1cn(C)cn1,Active,1.47 nM,9.11 nM,Active,–
CC[C@]1(O)c2cc3n(c(=O)c2COC(=O)[C@H]1OC)Cc1cc2cc4c(cc2nc1-3)OCO4,Active,0.2 nM,0.3 nM,Active,inhibition [5]: Active; inhibition [6]: Active
CC[C@]1(O)c2cc3n(c(=O)c2COC(=O)[C@H]1OC)Cc1c-3nc2ccccc2c1C1CCN(C)CC1,Active,3.23 nM,17.2 nM,Active,–
CCc1c2c(nc3ccc(O)cc13)-c1cc3c(c(=O)n1C2)COC(=O)[C@]3(O)CC [7-ETHYL-10-HYDROXYCAMPTOTHECIN],–,4.28 nM,18.5 nM,–,"remaining at 3 h, 1 µM [7]: 20%"
CC[C@]1(O)c2cc3n(c(=O)c2COC(=O)[C@H]1OC)Cc1c-3nc2cc3c(cc2c1-c1ccncc1)OCO3 [listing 1 of 2 here],–,–,–,Active,inhibition [5]: Active; inhibition [6]: Active
CC[C@]1(O)c2cc3n(c(=O)c2COC(=O)[C@H]1OC(C)=O)Cc1c-3nc2ccc(OC)cc2c1C1CCN(C)CC1,Active,13.2 nM,54.7 nM,Active,–
CC[C@]1(O)c2cc3n(c(=O)c2COC(=O)[C@H]1OC)Cc1cc2cc(O)ccc2nc1-3,Active,4.46 nM,26.7 nM,Active,–
CC[C@]1(O)c2cc3n(c(=O)c2COC(=O)[C@H]1OC)Cc1c-3nc2ccccc2c1-c1cn(C)cn1,Active,1.26 nM,4.11 nM,Active,–
CCc1c2c(nc3ccc(OC(=O)N4CCC(N5CCCCC5)CC4)cc13)-c1cc3c(c(=O)n1C2)COC(=O)[C@]3(O)CC [IRINOTECAN],–,–,–,–,Activity [8]: 22.4 g; Activity [9]: 20.8 g; Activity [10]: 19.9 g; Activity [11]: 22.3 g; Activity [12]: Non-toxic; T/C [13]: 42.22%; Activity [14]: 21.6 g; Activity [15]: 21.3 g
CC[C@]1(O)c2cc3n(c(=O)c2COC(=O)[C@H]1OC)Cc1c-3nc2cc3c(cc2c1-c1ccncc1)OCO3 [listing 2 of 2 here],–,–,–,–,Ratio IC50 [16]: 20; IC50 ([2]; hct-116): 0.215 nM; IC50 ([3]; ht-29): 1.27 nM
CC[C@]1(O)c2cc3n(c(=O)c2COC(=O)[C@H]1OC)Cc1c-3nc2ccc(OC)cc2c1-c1ccncc1,Active,3.33 nM,6.76 nM,Active,–
CC[C@]1(O)c2cc3n(c(=O)c2COC(=O)[C@H]1OC(C)=O)Cc1c-3nc2ccccc2c1C1CCN(C)CC1,Active,9.74 nM,63.8 nM,Active,–
CC[C@]1(O)c2cc3n(c(=O)c2COC(=O)[C@H]1OC)Cc1c-3nc2ccc(OC)cc2c1C1CCN(C)CC1,Active,8.23 nM,27.1 nM,Active,–
CC[C@]1(O)c2cc3n(c(=O)c2COC(=O)[C@H]1OC)Cc1cc2ccccc2nc1-3,Active,1.72 nM,4.79 nM,Active,–
CC[C@]1(O)c2cc3n(c(=O)c2COC(=O)[C@H]1OC(C)=O)Cc1c-3nc2ccccc2c1-c1ccncc1,–,2.95 nM,11.4 nM,inactive,–
CC[C@]1(O)c2cc3n(c(=O)c2COC(=O)[C@H]1OC)Cc1c-3nc2ccccc2c1-c1ccncc1,Active,2.12 nM,7.18 nM,Active,–
CC[C@]1(O)c2cc3n(c(=O)c2COC(=O)[C@H]1OC(C)=O)Cc1c-3nc2ccc(OC)cc2c1-c1ccncc1,Active,7.99 nM,31 nM,Active,–
